The values that follow come from patent publication US20250154173A1 (Merck Sharp & Dohme LLC, priority 2023, published 2025).

SMILES strings stand for the structures.

For the assay, the target named is T1, GST-RIPK1 (recombinant GST-RIPK1 kinase domain (residues 1-327)) (Homo sapiens, UniProt Q13546).
T1 construct: recombinant GST-RIPK1 kinase domain (residues 1-327) enzyme produced from baculovirus-transfected Sf21 cells; host or cells: baculovirus-transfected Sf21 insect cells
T1 sequence (Q13546 1-327): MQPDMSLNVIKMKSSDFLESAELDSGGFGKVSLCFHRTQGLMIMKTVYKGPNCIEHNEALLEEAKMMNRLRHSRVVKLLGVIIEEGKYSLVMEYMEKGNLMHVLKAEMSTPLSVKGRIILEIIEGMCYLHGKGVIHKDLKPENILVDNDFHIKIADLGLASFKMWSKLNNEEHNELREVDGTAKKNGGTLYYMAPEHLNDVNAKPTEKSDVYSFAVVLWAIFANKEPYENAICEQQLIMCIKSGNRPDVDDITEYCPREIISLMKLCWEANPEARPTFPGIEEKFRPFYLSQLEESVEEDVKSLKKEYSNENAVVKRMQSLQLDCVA
The assay can be described thus: RIPK1-ADP-Glo Enzymatic Assay. The assay is classed as biochemical. Conditions: ten-point titration, top compound concentration of 100000 nM; 25 nM GST-RIPK1, 300 μM ATP, 3 μM dephosphorylated-MBP; 30 min pre-incubation, 150 min reaction. Here is the method:
RIPK1-ADP-Glo Enzymatic Assay
The enzymatic activity of RIPK1 is measured using an assay derived from ADP-Glo kit (TMPromega), which provides a luminescent-based ADP detection system. Specifically, the ADP generated by RIPK1 kinase is proportionally detected as luminescent signals in a homogenous fashion. In this context, the assessment of the inhibitory effect of small molecules (EC50) is measured by the effectiveness of the compounds to inhibit the ATP to ADP conversion by RIPK1.
In this assay, the potency (EC50) of each compound was determined from a ten-point (1:3 serial dilution; top compound concentration of 100000 nM) titration curve using the following outlined procedure. To each well of a white ProxiPlus 384 well-plate, 30 nL of compound (1% DMSO in final assay volume of 3 μL) was dispensed, followed by the addition of 2 μL of 1× assay buffer (25 mM Hepes 7.3, 20 mM MgCl2, 50 mM NaCl, 1 mM DTT, 0.005% Tween20, and 0.02% BSA) containing 37.5 nM of GST-RIPK1 (recombinant GST-RIPK1 kinase domain (residues 1-327) enzyme produced from baculovirus-transfected Sf21 cells: MW=62 kDa). Plates were placed in an ambient temperature humidified chamber for a 30 minutes pre-incubation with compound. Subsequently, each reaction was initiated by the addition of 1 μL 1× assay buffer containing 900 μM ATP and 3 μM dephosphorylated-MBP substrate. The final reaction in each well of 3 μL consists of 25 nM of GST-RIPK1, 300 μM ATP, and 3 μM dephosphorylated-MBP. Kinase reactions were allowed to proceed for 150 minutes prior to adding ADP-Glo reagents per Promega's outlined kit protocol. Dose-response curves were generated by plotting percent effect (% product conversion; Y-axis) vs. Log 10 compound concentrations (X-axis). EC50 values were calculated using a non-linear regression, four-parameters sigmoidal dose-response model.
For orientation: In ADP-Glo the light output rises with the ADP produced.

Consider `O=C1N2[C@@H](CC[C@H]2c2cc(F)cc(F)c2)O[C@]12C[C@H](Oc1cc(-n3cc(C(F)F)cn3)ncn1)C2` [Example 9.56, (5′S,7a′R)-3-((6-(4-(difluoromethyl)-1H-pyrazol-1-yl)pyrimidin-4-yl)oxy)-5′-(3,5-difluorophenyl)tetrahydro-3′H-spiro[cyclobutane-1,2′-pyrrolo[2,1-b]oxazol]-3′-one], for which the half-maximal effective concentration (EC50) was 18 nM. With `O=C1N2[C@@H](CC[C@H]2c2cc(F)cc(F)c2)O[C@]12C[C@@H](Oc1cc(Cl)ncn1)C2` [Example 9.13, (1s,3S,5′S,7a′R)-3-((6-chloropyrimidin-4-yl)oxy)-5′-(3,5-difluorophenyl)tetrahydro-3′H-spiro[cyclobutane-1,2′-pyrrolo[2,1-b]oxazol]-3′-one] the figure was 108 nM; with `O=C1N2[C@@H](CC[C@H]2c2cnccn2)OC12CC(Oc1cc(F)ccc1F)C2` (stereo partly drawn) [Example 12.6, (5′S,7a′R)-3-(2,5-difluorophenoxy)-5′-(pyrazin-2-yl)tetrahydro-3′H-spiro[cyclobutane-1,2′-pyrrolo[2,1-b][1,3]oxazol]-3′-one], 16 nM. Take `O=C1N2C(CC[C@H]2c2cnccn2)OC12CC(OCc1ccc(Cn3ccnc3)cc1)C2` (stereo partly drawn) [Example 18.74, (5′S)-3-({4-[(1H-imidazol-1-yl)methyl]phenyl}methoxy)-5′-(pyrazin-2-yl)tetrahydro-3′H-spiro[cyclobutane-1,2′-pyrrolo[2,1-b][1,3]oxazol]-3′-one]: the EC50 was 92 nM. With `CCC(C)Oc1cccc(COC2CC3(C2)O[C@@H]2CC[C@@H](c4cnccn4)N2C3=O)n1` (stereo partly drawn) [Example 18.66, (5′S,7a′R)-3-({6-[(butan-2-yl)oxy]pyridin-2-yl}methoxy)-5′-(pyrazin-2-yl)tetrahydro-3′H-spiro[cyclobutane-1,2′-pyrrolo[2,1-b][1,3]oxazol]-3′-one] the figure was 141 nM. Consider `O=C1N2C(CCC2c2ccc(F)cn2)OC12CC(Oc1ncnn3cccc13)C2` (stereo not drawn) [Example 9.65, 5′-(5-fluoropyridin-2-yl)-3-[(pyrrolo[2,1-f][1,2,4]triazin-4-yl)oxy]tetrahydro-3′H-spiro[cyclobutane-1,2′-pyrrolo[2,1-b][1,3]oxazol]-3′-one], for which the EC50 is 13 nM. With `N#Cc1ccnc(O[C@H]2C[C@@]3(C2)O[C@@H]2CC[C@@H](c4cc(F)cc(F)c4)N2C3=O)n1` [Example 9.57, 2-(((1r,3R,5′S,7a′R)-5′-(3,5-difluorophenyl)-3′-oxotetrahydro-3′H-spiro[cyclobutane-1,2′-pyrrolo[2,1-b]oxazol]-3-yl)oxy)pyrimidine-4-carbonitrile] the figure was 69 nM; with `N#Cc1ccc(COC2CC3(C2)O[C@@H]2CC[C@@H](c4cnccn4)N2C3=O)cc1` (single isomer, unassigned) [Example 22.2, 4-((((5′S,7a′R)-3′-oxo-5′-(pyrazin-2-yl)tetrahydro-3′H-spiro[cyclobutane-1,2′-pyrrolo[2,1-b]oxazol]-3-yl)oxy)methyl)benzonitrile], 27 nM. In the case of `O=C1N2[C@@H](CC[C@H]2c2ccccc2)OC12CC(Oc1cccc(F)c1)C2` (stereo partly drawn) [Example 8.10, (5′S,7a′R)-3-(3-fluorophenoxy)-5′-phenyltetrahydro-3′H-spiro[cyclobutane-1,2′-pyrrolo[2,1-b][1,3]oxazol]-3′-one] it was 11 nM; in that of `O=C1N2[C@@H](CC[C@H]2c2ccccc2)OC12CC(Oc1cccc3sncc13)C2` (stereo partly drawn) [Example 8.12, (5′S,7a′R)-3-[(1,2-benzothiazol-4-yl)oxy]-5′-phenyltetrahydro-3′H-spiro[cyclobutane-1,2′-pyrrolo[2,1-b][1,3]oxazol]-3′-one], 20 nM; in that of `N#Cc1cc(O[C@H]2C[C@@]3(C2)O[C@@H]2CC[C@@H](c4cc(F)cc(F)c4)N2C3=O)ncn1` [Example 9.2, 6-(((5′S,7a′R)-5′-(3,5-difluorophenyl)-3′-oxotetrahydro-3′H-spiro[cyclobutane-1,2′-pyrrolo[2,1-b]oxazol]-3-yl)oxy)pyrimidine-4-carbonitrile], 16 nM. `O=C1N2C(CC[C@H]2c2cnccn2)OC12CC(OCc1ccc3nc(C(F)(F)F)sc3c1)C2` (stereo partly drawn) [Example 18.48]: the concentration for a half-maximal effect (EC50) turned out to be 31 nM. In the case of `CC1(Oc2cc(C(N)=O)ncn2)CC2(C1)O[C@@H]1CC[C@@H](c3cc(F)cc(F)c3)N1C2=O` (stereo partly drawn) [Example 5.2, 6-(((5′S,7a′R)-5′-(3,5-difluorophenyl)-3-methyl-3′-oxotetrahydro-3′H-spiro[cyclobutane-1,2′-pyrrolo[2,1-b]oxazol]-3-yl)oxy)pyrimidine-4-carboxamide], the 50% effective concentration (EC50) amounted to 121 nM. For `O=C1N2[C@@H](CC[C@H]2c2ccc(F)cc2)O[C@]12C[C@H](Oc1cc(-c3nn[nH]n3)ccn1)C2` [Example 10.7, (1r,3R,5′S,7a′R)-3-((4-(2H-tetrazol-5-yl)pyridin-2-yl)oxy)-5′-(4-fluorophenyl)tetrahydro-3′H-spiro[cyclobutane-1,2′-pyrrolo[2,1-b]oxazol]-3′-one], the EC50 turned out to be 27 nM. As to `N#CC1(c2ccc(COC3CC4(C3)OC3CC[C@@H](c5cnccn5)N3C4=O)cn2)CCC1` (stereo partly drawn) [Example 18.28, 1-[5-({[(5′S)-3′-oxo-5′-(pyrazin-2-yl)tetrahydro-3′H-spiro[cyclobutane-1,2′-pyrrolo[2,1-b][1,3]oxazol]-3-yl]oxy}methyl)pyridin-2-yl]cyclobutane-1-carbonitrile], the half-maximal effective concentration (EC50) amounted to 174 nM. With `O=C1N2[C@@H](CC[C@H]2c2cnccn2)OC12CC(OCC1CCCC1)C2` (single isomer, unassigned) [Example 23.4, (5′S,7a′R)-3-(cyclopentylmethoxy)-5′-(pyrazin-2-yl)tetrahydro-3′H-spiro[cyclobutane-1,2′-pyrrolo[2,1-b]oxazol]-3′-one] the figure was 649 nM; with `O=C1N2[C@@H](CC[C@H]2c2cncc(F)c2)OC12CCC(Oc1ccccc1)CC2` (single isomer, unassigned) [Example 16.4, (1s or r), (5′S,7a′R)-5′-(5-fluoropyridin-3-yl)-4-phenoxytetrahydro-3′H-spiro[cyclohexane-1,2′-pyrrolo[2,1-b]oxazol]-3′-one], 476 nM. Turning to `Cn1nccc1-c1cc(O[C@H]2C[C@@]3(C2)O[C@@H]2CC[C@@H](c4cc(F)cc(F)c4)N2C3=O)ncn1` [Example 9.55, (5′S,7a′R)-5′-(3,5-difluorophenyl)-3-((6-(1-methyl-1H-pyrazol-5-yl)pyrimidin-4-yl)oxy)tetrahydro-3′H-spiro[cyclobutane-1,2′-pyrrolo[2,1-b]oxazol]-3′-one], the EC50 was 13 nM. With `O=C1N2C(CC[C@H]2c2cnccn2)OC12CC(OCc1cnc3c(c1)CCCC3)C2` (stereo partly drawn) [Example 18.90, (5′S)-5′-(pyrazin-2-yl)-3-[(5,6,7,8-tetrahydroquinolin-3-yl)methoxy]tetrahydro-3′H-spiro[cyclobutane-1,2′-pyrrolo[2,1-b][1,3]oxazol]-3′-one] the figure was 780 nM; with `CCc1nnc(-c2ccc(COC3CC4(C3)OC3CC[C@@H](c5cnccn5)N3C4=O)cc2)o1` (stereo partly drawn) [Example 18.105, (5′S)-3-{[4-(5-ethyl-1,3,4-oxadiazol-2-yl)phenyl]methoxy}-5′-(pyrazin-2-yl)tetrahydro-3′H-spiro[cyclobutane-1,2′-pyrrolo[2,1-b][1,3]oxazol]-3′-one], 66 nM. Consider `O=C1N2C(CC[C@H]2c2cnccn2)OC12CC(OCc1ccc3nc(C(F)(F)F)cn3c1)C2` (stereo partly drawn) [Example 18.103], for which the EC50 was 607 nM.

By EC50 is commonly meant the midpoint of the concentration-response curve.
